Measured values as given in patent publication US20030130180A1, “Utilization of an aminopeptidase inhibitor” (priority 2000, published 2003).

System: Karpas cells
Assay: Detection of surface protein combinations of the protein network on untreated (V1) and actinonin-treated (V2) Karpas cells
Format: cell-based
Conditions: actinonin-treated Karpas cells (V2)
Description: Principally, detecting of the surface protein combinations may comprise procedural steps of an automated method for determining molecular classes, molecular groups or molecular parts in a solid or liquid object according to DE 197 09 348 C. In these steps, surface proteins may be examined and measured in one and the same object, i.e. in a sample of immune cells and/or tumor cells for example, by sequentially applying reagent solutions Yn (n=1,2,3, . . . N) by means of an automated apparatus, said procedural steps being: I. taking a first reagent solution Y1 from a vessel containing the reagent solution, II. applying said reagent solution Y1 to the object which is on an object slide, III. allowing the reagent solution to react for an automatically set period of time, IV. recording at least one individual labeling pattern of the object previously labeled with said first reagent solution Y1, V. repeating steps I-IV by applying said first reagent solution Y1 or a second reagent solution Y2 or a mixture of said first and second reagent solutions, and VI. repeating steps I to V with further reagent solutions Yn (n=2,3, . . . N) or a mixture thereof and whereby the labeling distribution patterns obtained in each cycle of the method are turned into a complex molecular combination pattern of the object to be examined by computer-aided image overlay. From this combination pattern, information may be gained on the presence of the above mentioned proteins, thus also allowing detection of the surface protein combinations, if the reagent solutions used contain labeled substances directed against the proteins in question. In numerous examinations, it was possible to identify the 30 cell surface proteins already listed above which belong to a specific protein network controlling the early polarization stages of tumor cells and immune cells. In a further examination, surface protein combinations of this protein network of Karpas cells were detected, both in untreated form and after treatment with the aminopeptidase inhibitor actinonin. For this purpose, two groups V1 and V2 of Karpas cells were formed, with the cells of group Vl remaining untreated, while the cells of group V2 were treated with actinonin. Table 2 lists those surface protein combinations which are present both in the actinonin-treated cells and in the untreated cells. However, this table and the further tables 3 and 4 only give examples of 18 of the 30 proteins, with the detected proteins being designated 1 and the non-detected proteins being designated 0. The proteins are continuously numbered 1 to 18, with the nomenclature being notable from table 1. [table] The cell numbers stated in tables 2 to 4 refer to each 1,000 cells examined in groups V1 and V2. Table 3 lists the surface protein combinations which only occur in the untreated Karpas cells and are never found in the actinonin-treated Karpas cells. The number of protein combinations listed in this table 3 amounts to 131. Finally, table 4 exclusively lists those surface protein combinations which occur exclusively in the actinonin-treated Karpas cells. It may be gathered from tables 2 to 4 that, if one examines merely 18 proteins of the 30 proteins, a total of 394 different surface protein combinations will occur, with a total of 334 different combinations occurring in the untreated cells and a total of 263 different combinations being detected in the treated cells.

Measured: V2 No. of cells In 1/1000

CCCCC[C@H](CC(=O)NO)C(=O)N[C@H](C(=O)N1CCC[C@H]1CO)C(C)C [actinonin]
0.0 1/1000: surface protein combination No. 19, binary code proteins 1-18: 011000011101011100, untreated V1: 0.4 | surface protein combination No. 20, binary code proteins 1-18: 011000011000000000, untreated V1: 0.4 | surface protein combination No. 21, binary code proteins 1-18: 010000001101001100, untreated V1: 0.4 | surface protein combination No. 22, binary code proteins 1-18: 010000001100011100, untreated V1: 0.4 | surface protein combination No. 23, binary code proteins 1-18: 001100011011001000, untreated V1: 0.4 | surface protein combination No. 24, binary code proteins 1-18: 001100011001001000, untreated V1: 0.4 | surface protein combination No. 25, binary code proteins 1-18: 001000010101101000, untreated V1: 0.4 | surface protein combination No. 26, binary code proteins 1-18: 001000010010001000, untreated V1: 0.4 | surface protein combination No. 27, binary code proteins 1-18: 000000000010001000, untreated V1: 0.4 | surface protein combination No. 28, binary code proteins 1-18: 111000011111011100, untreated V1: 0.2 | surface protein combination No. 29, binary code proteins 1-18: 110000011100011100, untreated V1: 0.2 | surface protein combination No. 30, binary code proteins 1-18: 101100000000001100, untreated V1: 0.2 | surface protein combination No. 31, binary code proteins 1-18: 101000111111011000, untreated V1: 0.2 | surface protein combination No. 32, binary code proteins 1-18: 011100011111011100, untreated V1: 0.2 | surface protein combination No. 33, binary code proteins 1-18: 011100011100001000, untreated V1: 0.2 | surface protein combination No. 34, binary code proteins 1-18: 011100001100001100, untreated V1: 0.2 | surface protein combination No. 35, binary code proteins 1-18: 001100000011001000, untreated V1: 0.2 | surface protein combination No. 36, binary code proteins 1-18: 001000011100000000, untreated V1: 0.2 | surface protein combination No. 37, binary code proteins 1-18: 001000010111011100, untreated V1: 0.2 | surface protein combination No. 38, binary code proteins 1-18: 001000010110001000, untreated V1: 0.2 | surface protein combination No. 39, binary code proteins 1-18: 001000001011000000, untreated V1: 0.2 | surface protein combination No. 40, binary code proteins 1-18: 000100010100001000, untreated V1: 0.2 | surface protein combination No. 41, binary code proteins 1-18: 000000011011001000, untreated V1: 0.2 | surface protein combination No. 42, binary code proteins 1-18: 000000010110001000, untreated V1: 0.2 | surface protein combination No. 43, binary code proteins 1-18: 000000010010001000, untreated V1: 0.2 | surface protein combination No. 44, binary code proteins 1-18: 000000000000001100, untreated V1: 0.2 | surface protein combination No. 45, binary code proteins 1-18: 111100101100011000, untreated V1: 0.1 | surface protein combination No. 46, binary code proteins 1-18: 111100011101001100, untreated V1: 0.1 | surface protein combination No. 47, binary code proteins 1-18: 111100011100111100, untreated V1: 0.1 | surface protein combination No. 48, binary code proteins 1-18: 111100011100011000, untreated V1: 0.1 | surface protein combination No. 49, binary code proteins 1-18: 111000011111011000, untreated V1: 0.1 | surface protein combination No. 50, binary code proteins 1-18: 111000011101011000, untreated V1: 0.1 | surface protein combination No. 51, binary code proteins 1-18: 111000001100011100, untreated V1: 0.1 | surface protein combination No. 52, binary code proteins 1-18: 110000001101011100, untreated V1: 0.1 | surface protein combination No. 53, binary code proteins 1-18: 110000001100000100, untreated V1: 0.1 | surface protein combination No. 54, binary code proteins 1-18: 101100011011011000, untreated V1: 0.1 | surface protein combination No. 55, binary code proteins 1-18: 101100010111001100, untreated V1: 0.1 | surface protein combination No. 56, binary code proteins 1-18: 101100010011001000, untreated V1: 0.1 | surface protein combination No. 57, binary code proteins 1-18: 101100000000001000, untreated V1: 0.1 | surface protein combination No. 58, binary code proteins 1-18: 101000110101011000, untreated V1: 0.1 | surface protein combination No. 59, binary code proteins 1-18: 101000011111011100, untreated V1: 0.1 | surface protein combination No. 60, binary code proteins 1-18: 101000011101011000, untreated V1: 0.1 | surface protein combination No. 61, binary code proteins 1-18: 101000010111111000, untreated V1: 0.1 | surface protein combination No. 62, binary code proteins 1-18: 101000010101011100, untreated V1: 0.1 | surface protein combination No. 63, binary code proteins 1-18: 100100110100011100, untreated V1: 0.1 | surface protein combination No. 93, binary code 001100010111111000 | surface protein combination No. 94, binary code 001100010111101100 | surface protein combination No. 95, binary code 001100010100011000 | surface protein combination No. 96, binary code 001100010011001100 | surface protein combination No. 97, binary code 001100010001001100 | surface protein combination No. 98, binary code 001100001101001000 | surface protein combination No. 99, binary code 001100000101000000 | surface protein combination No. 100, binary code 001000111111011000 | surface protein combination No. 101, binary code 001000111101011000 | surface protein combination No. 102, binary code 001000111011011000 | surface protein combination No. 103, binary code 001000011111011100 | surface protein combination No. 104, binary code 001000011101101000 | surface protein combination No. 105, binary code 001000011001011000 | surface protein combination No. 106, binary code 001000011001000100 | surface protein combination No. 107, binary code 001000010111101000 | surface protein combination No. 108, binary code 001000010101000100 | surface protein combination No. 109, binary code 001000010100011000 | surface protein combination No. 110, binary code 001000010011010000 | surface protein combination No. 111, binary code 001000010001011100 | surface protein combination No. 112, binary code 001000001111001000 | surface protein combination No. 113, binary code 001000001011001000 | surface protein combination No. 114, binary code 001000001001001000 | surface protein combination No. 115, binary code 001000001000000000 | surface protein combination No. 116, binary code 001000000110001000 | surface protein combination No. 117, binary code 000100011001000000
